Data from the NIST ThermoML archive (doi:10.1021/je900977e).
Values joined by “and” are separate entries in the source; they are usually repeats but may differ in a detail not shown here. Equal values may be shown once. Numbers after ± are expanded uncertainties.

Details: 313.15 K; Liquid; Closed cell (Static) method

Row | vapor or sublimation pressure | SMILES
1 | 24.4 ± 0.094 kPa and 24.38 ± 0.094 kPa | c1ccccc1 [benzene]
2 | 37.11 ± 0.14 kPa and 37.13 ± 0.14 kPa | CC(C)OC(C)C [diisopropyl ether]
3 | 13.9 ± 0.06 kPa and 13.89 ± 0.06 kPa | CC(C)O [propan-2-ol]
